How the values were obtained:
[1] = Merck Index 14th Ed. 2006, monograph no. 6327; cited from earlier work
[2] = dissolution of active ingredient in aqueous medium as a function of pH; type: physicochemical; conditions: pH of aqueous medium adjusted to greater than 7.0
From the text: In an embodiment of the present disclosure, the pH of an ophthalmic formulation including mycophenolic acid or salt thereof in an aqueous medium with a reduced level of oxygen dissolved in the ophthalmic formulation can be adjusted to a pH of greater than 7.0, e.g., at least about 7.4, such as at least about 7.8. In an embodiment, the ophthalmic formulation of the present disclosure has a pH in a range of 7.4 to 7.8 with a specification of ±0.3 pH units.

For `COc1c(C)c2c(c(O)c1C/C=C(\C)CCC(=O)O)C(=O)OC2` [mycophenolic acid], the “solubility in cold water” value [1] is listed as “almost insoluble” and the “dissolution of the active ingredient” value [2] is listed as “facilitates dissolution”.
